Holding throughout (type): biochemical
In one experiment the target is T1, recombinant human VAP-1 (Homo sapiens, UniProt Q16853).
T1 construct: purchased R&D systems
T1 sequence (Q16853 1-763): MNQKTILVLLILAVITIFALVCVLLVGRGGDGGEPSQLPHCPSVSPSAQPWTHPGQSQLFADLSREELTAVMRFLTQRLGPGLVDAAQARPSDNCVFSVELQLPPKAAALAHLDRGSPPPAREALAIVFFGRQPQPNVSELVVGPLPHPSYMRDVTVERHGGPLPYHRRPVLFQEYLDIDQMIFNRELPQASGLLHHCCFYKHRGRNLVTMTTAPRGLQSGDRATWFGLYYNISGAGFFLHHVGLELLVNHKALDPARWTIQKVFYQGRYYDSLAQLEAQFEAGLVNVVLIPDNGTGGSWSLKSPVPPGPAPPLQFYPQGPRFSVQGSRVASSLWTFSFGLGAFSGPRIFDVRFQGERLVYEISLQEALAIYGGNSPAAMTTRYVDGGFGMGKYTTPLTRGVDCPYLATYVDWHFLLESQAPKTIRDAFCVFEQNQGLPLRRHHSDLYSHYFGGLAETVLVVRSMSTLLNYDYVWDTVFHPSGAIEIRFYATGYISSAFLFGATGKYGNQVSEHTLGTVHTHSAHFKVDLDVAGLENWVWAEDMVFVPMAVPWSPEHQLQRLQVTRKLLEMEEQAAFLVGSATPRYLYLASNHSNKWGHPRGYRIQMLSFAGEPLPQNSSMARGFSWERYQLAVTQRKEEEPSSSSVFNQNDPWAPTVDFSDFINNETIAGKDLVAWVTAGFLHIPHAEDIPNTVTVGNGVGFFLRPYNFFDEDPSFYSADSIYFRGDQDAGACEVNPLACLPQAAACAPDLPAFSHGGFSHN
In words: Activity on recombinant human VAP-1, Amplex Red HRP-coupled hydrogen peroxide assay, benzylamine substrate. To be noted: recombinant human VAP-1, benzylamine substrate, read-out: Inhibitory Activity (IC50, nM) human VAP-1. The method in brief:
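Enzyme in 50 mM sodium phosphate pH 7.4 preincubated with compound 30 min at 37 °C, then 1 mM benzylamine, 200 µM Amplex Red and 1 U/mL HRP added. H2O2-derived resorufin fluorescence (ex 544/em 590 nm) followed over 1–2 h; signal-rate decrease versus DMSO control, 8-point curve, four-parameter logistic IC50.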

In experiment [1] the target is T2, recombinant human MAO-A (monoamine oxidase-A) (Homo sapiens, UniProt P21397).
T2 construct: purchased Sigma-Aldrich
T2 sequence (P21397 1-527): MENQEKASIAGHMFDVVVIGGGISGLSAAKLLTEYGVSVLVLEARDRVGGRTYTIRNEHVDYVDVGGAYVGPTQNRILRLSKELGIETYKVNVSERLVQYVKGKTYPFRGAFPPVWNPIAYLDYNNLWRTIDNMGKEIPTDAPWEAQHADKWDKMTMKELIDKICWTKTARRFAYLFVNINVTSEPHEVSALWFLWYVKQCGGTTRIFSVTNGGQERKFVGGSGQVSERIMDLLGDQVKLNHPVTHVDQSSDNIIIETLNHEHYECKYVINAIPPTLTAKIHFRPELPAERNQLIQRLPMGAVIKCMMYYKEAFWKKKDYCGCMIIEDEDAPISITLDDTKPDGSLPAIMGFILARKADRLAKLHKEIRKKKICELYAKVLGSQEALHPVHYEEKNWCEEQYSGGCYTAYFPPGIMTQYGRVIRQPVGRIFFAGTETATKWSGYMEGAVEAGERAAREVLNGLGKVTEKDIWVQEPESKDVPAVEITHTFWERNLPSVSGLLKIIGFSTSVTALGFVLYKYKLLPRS
In words: Activity on recombinant human MAO-A, Amplex Red method, 0.5 mM tyramine substrate. To be noted: read-out: Inhibitory Activity (IC50, nM) MAO-A. The method in brief: (§1)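 Enzyme preincubated with compound 30 min at 37 °C in 50 mM sodium phosphate pH 7.4, final DMSO below 1%. Substrate was 0.5 mM tyramine for MAO-A and 1 mM benzylamine for MAO-B, with 200 uM Amplex Red and 1 U/mL HRP. H2O2-coupled resorufin fluorescence (ex 544/em 590) followed over 1–2 h; 8-point 4-parameter IC50.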

Experiment [2] has as its target T3, recombinant human MAO-B (monoamine oxidase-B) (Homo sapiens, UniProt P27338).
T3 construct: purchased Sigma-Aldrich
T3 sequence (P27338 1-520): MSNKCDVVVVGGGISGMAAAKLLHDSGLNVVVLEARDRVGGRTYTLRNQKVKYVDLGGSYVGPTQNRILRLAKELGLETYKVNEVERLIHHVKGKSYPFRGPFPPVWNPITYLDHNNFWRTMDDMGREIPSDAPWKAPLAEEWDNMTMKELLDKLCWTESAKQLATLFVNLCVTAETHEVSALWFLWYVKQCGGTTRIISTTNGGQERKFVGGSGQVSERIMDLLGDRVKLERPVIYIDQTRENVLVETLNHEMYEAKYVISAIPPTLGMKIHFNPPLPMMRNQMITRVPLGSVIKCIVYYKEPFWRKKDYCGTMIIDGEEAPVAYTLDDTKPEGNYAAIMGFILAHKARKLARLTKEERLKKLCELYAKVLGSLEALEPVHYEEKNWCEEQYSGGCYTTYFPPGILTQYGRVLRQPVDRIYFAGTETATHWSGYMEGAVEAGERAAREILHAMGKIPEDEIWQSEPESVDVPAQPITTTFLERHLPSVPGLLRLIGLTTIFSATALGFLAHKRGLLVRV
As to the kind of experiment: Activity on recombinant human MAO-B, Amplex Red method, 1 mM benzylamine substrate. To be noted: read-out: Inhibitory Activity (IC50, nM) MAO-B. In outline:
as §1

Experiment [3] concerns the target T4, recombinant human DAO (diamine oxidase) (Homo sapiens, UniProt P19801).
T4 construct: purchased R&D systems
T4 sequence (P19801 20-751): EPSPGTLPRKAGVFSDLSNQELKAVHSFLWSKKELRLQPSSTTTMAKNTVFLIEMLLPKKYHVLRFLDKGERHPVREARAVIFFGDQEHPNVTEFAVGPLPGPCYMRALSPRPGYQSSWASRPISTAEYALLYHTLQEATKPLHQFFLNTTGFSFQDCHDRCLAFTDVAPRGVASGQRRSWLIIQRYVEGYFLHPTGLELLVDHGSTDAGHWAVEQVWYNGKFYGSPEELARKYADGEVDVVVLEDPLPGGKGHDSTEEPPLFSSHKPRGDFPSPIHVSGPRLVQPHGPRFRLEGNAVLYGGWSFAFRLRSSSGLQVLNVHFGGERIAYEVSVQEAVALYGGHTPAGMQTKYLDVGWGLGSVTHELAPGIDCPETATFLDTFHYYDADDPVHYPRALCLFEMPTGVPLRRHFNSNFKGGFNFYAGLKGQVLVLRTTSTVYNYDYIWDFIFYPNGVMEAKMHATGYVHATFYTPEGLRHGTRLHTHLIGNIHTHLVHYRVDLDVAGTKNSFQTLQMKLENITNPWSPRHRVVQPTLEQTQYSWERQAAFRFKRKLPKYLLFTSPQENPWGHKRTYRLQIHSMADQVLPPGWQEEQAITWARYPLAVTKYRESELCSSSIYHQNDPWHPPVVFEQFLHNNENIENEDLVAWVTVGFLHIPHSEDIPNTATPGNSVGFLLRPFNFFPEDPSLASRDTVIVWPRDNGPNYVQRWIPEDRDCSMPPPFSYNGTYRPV
In words: Activity on recombinant human DAO, Amplex Red method, 1 mM putrescine substrate. To be noted: recombinant human DAO, read-out: Inhibitory Activity (IC50, nM) DAO. In outline:
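Inhibition of recombinant human DAO (diamine oxidase, R&D systems) was assessed with the Amplex Red Hydrogen Peroxide Assay Kit. Hydrogen peroxide produced from 1 mM putrescine was detected through an HRP-coupled reaction that converts Amplex Red into fluorescent resorufin, read at 544 nm excitation and 590 nm emission. IC50 values came from four-parameter logistic fits in GraphPad Prism.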

Setting [4] is: 1 mM putrescine, * = between 10 and 100 nM, ** = between 300 and 1000 nM.

SMILES strings stand for the structures. Counter-ions that a name gives are not always drawn. Like-named read-outs stand apart in the source and are kept apart here.

In the case of `NC/C(=C\F)Cn1ncn(-c2cccc(-c3ccc(C4CCOCC4)cc3)c2)c1=O` [Example 73, 2-[(2E)-2-(aminomethyl)-3-fluoroprop-2-en-1-yl]-4-[4′-(tetrahydro-2H-pyran-4-yl)biphenyl-3-yl]-2,4-dihydro-3H-1,2,4-triazol-3-one hydrochloride], the IC50 on recombinant human VAP-1 (30 min preincubation at 37° C.) was 0.98 nM; in experiment [1] (0.5 mM tyramine), over 100000 nM; in experiment [2] (1 mM benzylamine), over 10000 nM; in experiment [3] (setting [4]) it was 67 nM.

With `NC/C(=C\F)Cn1ncn(-c2ncc(-c3ccc(-c4ncon4)cc3)s2)c1=O` [Example 229], the half-maximal inhibitory concentration (IC50) was 0.98 nM at recombinant human VAP-1, 130 nM in experiment [1] (0.5 mM tyramine substrate), 12 nM in experiment [2] (1 mM benzylamine substrate) and under 100 nM in experiment [3] (1 mM putrescine substrate).

As for `Cc1cc(-c2ccc3cn[nH]c3c2)cnc1-n1cnn(C/C(=C/F)CN)c1=O` [Example 153, 2-[(2E)-2-(aminomethyl)-3-fluoroprop-2-en-1-yl]-4-[5-(1H-indazol-6-yl)-3-methylpyridin-2-yl]-2,4-dihydro-3H-1,2,4-triazol-3-one], the half-inhibitory concentration (IC50) at recombinant human VAP-1 was determined as 0.39 nM; in experiment [1] (0.5 mM tyramine substrate) it was 96000 nM; in experiment [2] (1 mM benzylamine substrate), 703 nM; in experiment [3] (1 mM putrescine substrate), 640 nM.

With `Cc1cc(-c2ccc(-c3cnon3)cc2)cnc1-n1cnn(C/C(=C/F)CN)c1=O` [Example 138, 2-[(2E)-2-(aminomethyl)-3-fluoroprop-2-en-1-yl]-4-{3-methyl-5-[4-(1,2,5-oxadiazol-3-yl)phenyl]pyridin-2-yl}-2,4-dihydro-3H-1,2,4-triazol-3-one hydrochloride], the IC50 on recombinant human VAP-1 (30 min preincubation at 37° C.) stood at 0.7 nM; in experiment [1] (0.5 mM tyramine), 84000 nM; in experiment [2] (1 mM benzylamine), 1100 nM; in experiment [3] (setting [4]), 240 nM.

Take `Cc1ccc(-c2ccc3cn[nH]c3c2)nc1-n1cnn(C/C(=C/F)CN)c1=O` [Example 214, 2-[(2E)-2-(aminomethyl)-3-fluoroprop-2-en-1-yl]-4-[6-(1H-indazol-6-yl)-3-methylpyridin-2-yl]-2,4-dihydro-3H-1,2,4-triazol-3-one hydrochloride]: the half-maximal inhibitory concentration (IC50) on recombinant human VAP-1 was 23 nM; in experiment [1] (0.5 mM tyramine substrate), over 100000 nM; in experiment [2] (1 mM benzylamine substrate), over 100000 nM; in experiment [3] (1 mM putrescine substrate), 1400 nM.

Consider `Cc1c(-c2ccc(S(C)(=O)=O)cc2)cccc1-n1cnn(C/C(=C/F)CN)c1=O` [Example 106, 2-[(2E)-2-(aminomethyl)-3-fluoroprop-2-en-1-yl]-4-[2-methyl-4′-(methylsulfonyl)biphenyl-3-yl]-2,4-dihydro-3H-1,2,4-triazol-3-one], for which the concentration for half-maximal inhibition (IC50) is 4.7 nM at recombinant human VAP-1 (30 min preincubation at 37° C.), over 100000 nM in experiment [1] (0.5 mM tyramine), over 10000 nM in experiment [2] (1 mM benzylamine) and 310 nM in experiment [3] (setting [4]).

For `NC/C(=C\F)Cn1ncn(-c2cccc(C#Cc3cnc4c(c3)NCCO4)n2)c1=O` [Example 251, 2-[(E)-2-(aminomethyl)-3-fluoro-allyl]-4-[6-[2-(2,3-dihydro-1H-pyrido[2,3-b][1,4]oxazin-7-yl)ethynyl]-2-pyridyl]-1,2,4-triazol-3-one], the 50% inhibitory concentration (IC50) is 0.3 nM at recombinant human VAP-1, over 100000 nM in experiment [1] (0.5 mM tyramine substrate), over 10000 nM in experiment [2] (1 mM benzylamine substrate) and 21 nM in experiment [3] (1 mM putrescine substrate).

Consider `COc1cc(-n2cnn(C/C(=C/F)CN)c2=O)ccc1Br` [Example 18, 2-[(2E)-2-(aminomethyl)-3-fluoroprop-2-en-1-yl]-4-(4-bromo-3-methoxyphenyl)-2,4-dihydro-3H-1,2,4-triazol-3-one hydrochloride], for which the IC50 on recombinant human VAP-1 (30 min preincubation at 37° C.) was 1.4 nM; in experiment [1] (0.5 mM tyramine) it was over 100000 nM; in experiment [2] (1 mM benzylamine) it was 58 nM; in experiment [3] (setting [4]), 21 nM.

Consider `Cn1cncc1C#Cc1cccc(-n2cnn(C/C(=C/F)CN)c2=O)n1` [Example 256, 2-[(E)-2-(aminomethyl)-3-fluoro-allyl]-4-[6-[2-(3-methylimidazol-4-yl)ethynyl]-2-pyridyl]-1,2,4-triazol-3-one], for which the IC50 on recombinant human VAP-1 is 0.3 nM; in experiment [1] (0.5 mM tyramine substrate), over 100000 nM; in experiment [2] (1 mM benzylamine substrate), over 10000 nM; in experiment [3] (1 mM putrescine substrate), 27 nM.

(Values after US11492335B2, “Aryl or heteroaryl triazolone derivatives or salts thereof, or pharmaceutical compositions comprising the same” (YUHAN CORPORATION, priority 2018, dated 2022).)
